Data: patent US6369225B1, “Compounds having activity as inhibitors of cytochrome P450RAI” (Allergan Sales, Inc., priority 2000, dated 2002)

Tests used:
RARγ = target: T1, RARγ (Homo sapiens, UniProt P13631); experiment: chimeric receptor transactivation assay, RARγ; format: cell-based; details: EC50 line of EC50/(EFFICACY)/Kd, read-out: RAR EC50 γ
T1 sequence (P13631 185-419 limits assumed): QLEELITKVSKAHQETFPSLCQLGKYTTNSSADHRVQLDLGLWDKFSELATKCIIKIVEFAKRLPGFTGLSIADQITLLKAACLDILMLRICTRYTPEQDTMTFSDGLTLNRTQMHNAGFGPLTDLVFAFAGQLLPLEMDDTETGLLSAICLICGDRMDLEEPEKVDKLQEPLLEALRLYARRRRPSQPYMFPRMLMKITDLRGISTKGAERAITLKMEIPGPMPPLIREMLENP
From the text: Assays described below measure the ability of a compound to bind to, and/or activate various retinoid receptor subtypes. When in these assays a compound binds to a given receptor subtype and activates the transcription of a reporter gene through that subtype, then the compound is considered an agonist of that receptor subtype. […] In the below described assays the ability of the compounds to bind to RARα, RARβ, RARγ, RXRα, RXRβ and RXRγ receptors, and the ability or inability of the compounds to activate transcription of a reporter gene through these receptor subtypes can be tested.
As far as specific assays are concerned, a chimeric receptor transactivation assay which tests for agonist-like activity in the RARα, RARβ, AND RARγ, receptor subtypes, and which is based on work published by Feigner P. L. and Holm M. (1989) Focus, 112 is described in detail in U.S. Pat. No. 5,455,265. The specification of U.S. Pat. No. 5,455,265 is hereby expressly incorporated by reference. The numeric results obtained with several preferred compounds of this invention in this assay are shown below in Table 1.

skin of hairless mice = experiment: topical skin irritation test in hairless mice; format: in vivo, mouse; details: topical in acetone, once daily days 1 through 5, mean ±SD, range 0-21
From the text: Mice were housed individually throughout the dosing period.
Doses are disclosed as nmol/25 g.
The grading scale used is as follows:
Values can range from 0-9.
Values can range from 0-8.

SMILES | EC50 (RARγ) [µM] | also measured
Cc1cc(C#Cc2ccc(C(=O)O)cc2)ccc1C1(OCc2ccccc2)CC1 [Compound 81, 4-[4-(1-Benzyloxycyclopropyl)-3-methyl-phenylethynyl]-benzoic Acid] | 0.183 | 
CC(C)OC1(c2ccc(C#Cc3ccc(C(=O)O)cc3)cc2)CC1 [Compound 73, 4-[4-(1-Isopropoxycyclopropyl)-phenylethynyl]-benzoic Acid] | 0.091 | 
CC1(C)CCC(=O)c2ccc(C#Cc3ccc(CC(=O)O)cc3)cc21 [Compound 5, 4-[(8,8-Dimethyl-5-oxo-5,6,7,8-tetrahydro-naphthalene-2-yl-ethynyl)-phenyl]-acetic Acid] |  | Cutaneous Toxicity Score (Blackjack Score) (skin of hairless mice; 100 nmole (nmol/25 g)): 0; Cutaneous Toxicity Score (Blackjack Score) (skin of hairless mice; 1000 nmole (nmol/25 g)): 6 ± 3
COC1(c2ccc(C#Cc3ccc(C(=O)O)cc3)cc2)CC1 [Compound 69, 4-[4-(1-Methoxycyclopropyl)-phenylethynyl]-benzoic Acid] | 0.0526 | 
CCCN(CCC)C1(c2ccc(C#Cc3ccc(C(=O)O)cc3)cc2)CC1 [Compound 110, 4-[4-(1-Dipropylamino-cyclopropyl)-phenylethynyl]-benzoic Acid] | 0.262 | 
CCCNC1(c2ccc(C#Cc3ccc(C(=O)O)cc3)cc2)CC1 [Compound 108, 4-[4-(1-Propylamino-cyclopropyl)-phenylethynyl]-benzoic Acid] | 0.141 | 
CC1(C)CC2(CC2)Oc2ccc(C#Cc3ccc(C(=O)O)cc3)cc21 [Compound 40, Benzoic Acid, 4-[(3,4-dihydro-4,4-dimethylspiro[2H-1-benzopyran-2,1′-cyclopropane]-6-yl)ethynyl]-] | 0.0068 | 
Cc1cc(C#Cc2ccc(C(=O)O)cc2)ccc1C1(OC(C)C)CC1 [Compound 85, 4-[4-(1-Isopropoxycyclopropyl)-3-methyl-phenylethynyl]-benzoic Acid] | 0.0025 | 
CC1(C)CC2(CC2)Oc2ccc(C#Cc3ccc(C(=O)O)c(F)c3)cc21 [Compound 44, 2-Fluoro-benzoic Acid, 4-[(3,4-dihydro-4,4-dimethylspiro[2H-1-benzopyran-2,1′-cyclopropane]-6-yl)ethynyl]-] | 0.0075 | 
CCc1cc(C#Cc2ccc(C(=O)O)cc2)ccc1C1(OCc2ccccc2)CC1 [Compound 93, 4-[4-(1-Benzyloxycyclopropyl)-3-ethyl-phenylethynyl]-benzoic Acid] | 0.01 | 
CN(C1CC1)C1CCC(C)(C)c2cc(C#Cc3ccc(C(=O)O)cc3)ccc21 (stereo not shown) [Compound 3, 4-[(5-Cyclopropyl-methyl-amino)-8,8-dimethyl-5,6,7,8-tetrahydro-naphthalene-2yl-ethynyl]-benzoic Acid] | 0.0098 | 
Cc1cc(C#Cc2ccc(C(=O)O)cc2)ccc1C1(OCC(C)(C)C)CC1 [Compound 89, 4-[4-[1-(2,2-Dimethylpropyloxy)-cyclopropyl]-3-methyl-phenylethynyl]-benzoic Acid] | 0.012 | 
CN(C1CC1)C1CCC(C)(C)c2cc(C#Cc3ccc(CC(=O)O)cc3)ccc21 (stereo not shown) [Compound 8, 4-[(5-(Cyclopropyl-methyl-amino)-8,8-dimethyl-5,6,7,8-tetrahydro-naphthalene-2-yl-ethynyl)-phenyl]-acetic Acid] |  | Cutaneous Toxicity Score (Blackjack Score) (skin of hairless mice; 100 nmole (nmol/25 g)): 5 ± 2; Cutaneous Toxicity Score (Blackjack Score) (skin of hairless mice; 300 nmole (nmol/25 g)): 8 ± 3; Cutaneous Toxicity Score (Blackjack Score) (skin of hairless mice; 1000 nmole (nmol/25 g)): 12 ± 1
